Measurements reported in the supplement of paper PMC10307832.

Tests used:
[1] = compound: CC1=C(N=C(N=C1N)[C@H](CC(=O)N)NC[C@@H](C(=O)N)N)C(=O)N[C@@H]([C@H](C2=CN=CN2)OC3C(C(C(C(O3)CO)O)O)OC4C(C(C(C(O4)CO)O)OC(=O)N)O)C(=O)N[C@H](C)[C@H]([C@H](C)C(=O)N[C@@H]([C@@H](C)O)C(=O)NCCC5=NC(=CS5)C6=NC(=CS6)C(=O)NCCC[S+](C)C)O [Bleomycin] + COc1cc2c(Oc3ccc(NC(=O)C4(C(=O)Nc5ccc(F)cc5)CC4)cc3F)ccnc2cc1OCCCN1CCOCC1 [Foretinib] (partner 0.25 µM); assay: relative viability (nuclei count vs DMSO), 5 days (fraction); higher = more cells survive; conditions: main component drawn
How it was run: (§1)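 Lung cancer cell lines in 1536-well plates were dosed by pin tool the day after seeding, either with one drug alone or with a fixed anchor-drug dose plus five library-drug doses (not always all listed) in √10 steps. After 5 days, cells were fixed and their nuclei stained in one step (final 0.05% Triton X-100, 1% formaldehyde, 1 ug/ml Hoechst), then counted on 4× images. Relative viability is the nuclei count in treated wells divided by that in vehicle wells. Values are medians of duplicate plates.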

[2] = compound: COc1cc([C@@H]2c3cc4c(cc3[C@@H](O[C@@H]3O[C@@H]5CO[C@@H](C)O[C@H]5[C@H](O)[C@H]3O)[C@H]3COC(=O)[C@H]23)OCO4)cc(OC)c1O [Etoposide] + Cc1cc(Nc2cc(N3CCN(C)CC3)nc(Sc3ccc(NC(=O)C4CC4)cc3)n2)n[nH]1 [Tozasertib] (partner 0.1 µM); assay: as above
How it was run: as §1

Cell Line	relative viability ([1]; first compound 0.01 µM)	relative viability ([1]; first compound 0.03162 µM)	relative viability ([1]; first compound 0.1 µM)	relative viability ([1]; first compound 0.3162 µM)	relative viability ([1]; first compound 1 µM)	relative viability ([2]; first compound 0.01 µM)	relative viability ([2]; first compound 0.03162 µM)	relative viability ([2]; first compound 0.1 µM)	relative viability ([2]; first compound 0.3162 µM)	relative viability ([2]; first compound 1 µM)
NCI-H1915	0.929	0.885	0.763	0.431	0.257	0.438	0.459	0.473	0.353	0.308
NCI-H1793	0.717	0.724	0.734	0.269	0.218	0.324	0.311	–	0.316	0.185
NCI-H2023	0.717	0.641	0.522	0.245	0.162	0.308	0.337	0.429	0.291	0.109
COR-L 105	0.895	1	0.952	0.761	0.498	0.385	0.345	0.291	0.353	0.366
SK-LU-1	0.704	0.874	0.815	0.461	0.365	0.356	0.278	0.318	0.161	0.167
LXF-289	0.933	0.888	0.804	0.36	0.14	0.209	0.166	0.196	0.111	0.0978
PC-3 [JPC-3]	0.929	1.24	0.95	0.75	0.541	0.841	0.882	0.928	0.853	0.707
NCI-H661	0.896	0.924	0.689	0.393	0.357	0.342	0.374	0.332	0.323	0.353
NCI-H1666	0.763	0.675	0.533	0.44	0.398	0.551	0.592	0.485	0.356	0.372
NCI-H2085	1.03	0.845	0.692	0.461	0.396	0.783	0.772	0.762	0.727	0.478
NCI-H1734	0.773	0.564	0.631	0.344	0.228	0.269	0.254	0.279	0.273	0.24
NCI-H2228	0.853	0.741	0.695	0.274	0.191	0.287	0.191	0.247	0.169	0.117
EMC-BAC-2	0.859	0.74	0.63	0.35	0.247	0.251	0.276	0.288	0.221	0.203
NCI-H1993	0.809	0.667	0.796	0.644	0.479	0.634	0.506	0.576	0.495	0.55
NCI-H596	0.586	0.629	0.464	0.354	0.247	0.774	1.05	0.843	0.543	0.683
NCI-H650	0.837	0.915	0.823	0.564	0.288	0.693	0.717	0.498	0.258	0.166
SW 1573	0.811	0.813	0.748	0.468	0.308	0.163	0.133	0.164	0.156	0.0887
ChaGo-K-1	0.831	0.75	0.754	0.507	0.444	0.192	0.212	0.211	0.181	0.187
NCI-H1650	0.718	0.393	0.254	0.188	0.181	0.381	0.356	0.337	0.197	0.208
NCI-H2009	0.775	1.29	1.25	0.969	0.639	0.767	0.745	0.782	0.557	0.431
LOU-NH91	0.781	0.663	0.649	0.4	0.309	0.713	0.673	0.566	0.554	0.341
NCI-H3122	0.956	0.99	0.914	0.483	0.357	0.441	0.324	0.262	0.281	0.159
LCLC-97TM1	0.912	0.809	0.628	0.274	0.176	0.201	0.2	0.208	0.19	0.144

Cell Line	relative viability ([1]; first compound 0.01 µM)	relative viability ([1]; first compound 0.03162 µM)	relative viability ([1]; first compound 0.1 µM)	relative viability ([1]; first compound 0.3162 µM)	relative viability ([1]; first compound 1 µM)	relative viability ([2]; first compound 0.01 µM)	relative viability ([2]; first compound 0.03162 µM)	relative viability ([2]; first compound 0.1 µM)	relative viability ([2]; first compound 0.3162 µM)	relative viability ([2]; first compound 1 µM)
NCI-H647	0.482	0.308	0.212	0.0979	0.073	0.224	0.0009	0.271	0.205	0.112
NCI-H838	0.617	0.368	0.274	0.201	0.204	0.348	0.295	0.307	0.211	0.24
H3255	0.705	0.813	0.699	0.553	0.432	0.631	0.605	0.577	0.238	0.249
SK-MES-1	0.907	0.846	0.765	0.357	0.237	0.877	0.807	0.833	0.389	0.222
NCI-H1437	1.18	1.12	0.959	0.695	0.619	0.433	0.4	0.429	0.293	0.318
NCI-H2342	0.874	0.996	1.03	0.698	0.918	0.528	0.512	0.379	0.315	0.272
LU99A	0.683	0.64	0.503	0.297	0.19	0.283	0.277	0.262	0.247	0.241
SW 900	0.629	0.386	0.465	0.211	0.161	0.459	0.666	0.55	0.341	0.224
HCC-827	0.955	1.22	0.913	0.558	0.266	0.388	0.453	0.433	0.192	0.173
LK-2	0.803	0.779	0.743	0.36	0.285	0.207	0.175	0.18	0.21	0.205
HCC-366	0.872	0.702	0.337	0.0868	0.0636	0.0819	0.087	0.0918	0.0736	0.0452
BEN	0.626	0.582	0.587	0.379	0.329	0.463	0.503	–	0.483	0.481
NCI-H2347	0.852	0.97	0.628	0.319	0.692	0.518	0.554	0.419	0.433	0.291
NCI-H1395	0.886	0.932	0.827	0.672	0.497	0.616	0.758	0.665	0.74	0.592
201T	0.902	0.928	0.825	0.548	0.336	0.824	0.995	0.886	0.709	0.465
NCI-H2170	0.992	0.98	0.736	0.855	0.829	0.634	0.778	0.522	0.593	0.526
NCI-H520	0.677	0.742	0.743	0.37	0.537	0.427	0.408	–	0.462	0.396
NCI-H727	0.902	0.711	0.641	–	0.705	0.623	0.677	–	0.605	0.692
HCC-15	0.869	0.913	0.752	0.33	0.227	0.386	0.348	0.367	0.23	0.122
ABC-1	0.773	0.9	0.579	0.346	0.24	0.176	0.202	0.186	0.199	0.195
LCLC-103H	0.683	0.765	0.677	0.382	0.343	0.427	0.574	0.459	0.526	0.35
NCI-H460	0.68	0.651	0.283	0.0633	0.0375	0.396	0.369	0.338	0.0692	0.0251
EPLC-272H	0.61	0.653	0.51	0.17	0.1	0.336	0.213	0.211	0.235	0.112
